Test results: ChEMBL document CHEMBL1154261, “Halogenated fatty acid amides and cyclic depsipeptides from an eastern Caribbean collection of the cyanobacterium Lyngbya majuscula” (J Nat Prod, 2009)
Starred links: 1 amine or outer side, 2 acyl side, 3 side chain; linkers in the order of their positions; H or OH if unused. Non-standard residues stand in square brackets, D forms with d. Residues, ends and D or L forms follow the SMILES beside them. X1 = CCC[C@@H](N[*:1])[C@H](C)C(=O)[*:2]; Met(O2) = CS(=O)(=O)CC[C@H](N)C(=O)O; dNMeF = CN[C@H](Cc1ccccc1)C(=O)O; NMeL = CN[C@@H](CC(C)C)C(=O)O; dHiv = CC(C)[C@@H](O)C(=O)O

Key:
HEK293 [1] = assay: Cytotoxicity against HEK293 cells after 48 hrs by resazurin conversion-based fluorometric assay; type: cell-based; conditions: Homo sapiens, HEK293, 48 h
HEK293 [2] = assay: Cytotoxicity against HEK293 cells at 400 nM after 48 hrs by resazurin conversion-based fluorometric assay; type: cell-based; conditions: human, hek293, 48 h, 0.4 µM
Spodoptera exigua = assay: Antilepidopteran activity against beet armyworm neonates assessed as mortality rate at 1.0 mg/ml after 5 days; type: functional

Row | SMILES | IC50 (HEK293 [1]) | Activity (HEK293 [2]) | Activity (Spodoptera exigua)
1 | CCC[C@H]1NC(=O)[C@H](C)NC(=O)[C@H](CC(C)C)N(C)C(=O)[C@H](Cc2ccccc2)NC(=O)[C@H](CCS(C)(=O)=O)NC(=O)[C@@H](Cc2ccccc2)N(C)C(=O)[C@@H](C(C)C)OC(=O)[C@H]1C [CARRIEBOWMIDE SULFONE] (cyclo(A[X1][dHiv][dNMeF][Met(O2)]F[NMeL])) | > 50 µM |  | 
2 | COc1cccc2c1C(=O)c1c(O)c3c(c(O)c1C2=O)C[C@@](O)(C(C)=O)C[C@@H]3O[C@H]1C[C@H](N)[C@H](O)[C@H](C)O1 [DAUNORUBICIN] |  | 82% | 
3 | C[C@@H]1C(=O)O[C@@H](C(C)(C)O)c2nc(cs2)C(=O)OC(C)(C)[C@H](O)c2nc(cs2)C(=O)O[C@H]1CCCC(C)(Cl)Cl [DEACETYLHECTOCHLORIN] | 6 µM |  | 
4 | C=CCCC(C)C(=O)C(C)CC(C)NC(=O)CCC/C(=C/Cl)CCC (stereo not drawn) [GRENADAMIDE B] | ≥ 100 µM |  | 38%
5 | CCC/C(=C\Cl)CCCC(=O)NC(C)CC(C)C(=O)C(C)CC/C=C/Cl (stereo not drawn) [GRENADAMIDE] | ≥ 100 µM |  | 50%
6 | CC(CC(=O)N(C)[C@@H]1C(=O)N(C)[C@@H](C(C)C)C(=O)N[C@H](C)C(=O)N(C)[C@@H](C)C(=O)N(C)[C@H](Cc2ccccc2)C(=O)N[C@@H](C)C(=O)O[C@@H]1C)C(Cl)Cl (stereo partly drawn) [ITRALAMIDE A] | 54 µM |  | 
